Assay type in all cases: cell-based, human
The test system of assay [1] is NCI-H441 cells. Kind of assay: 3D cell proliferation assay (CellTiter Glo-3D), NCI-H441. The note with it: medium with 2% FBS, read-out: H441 AP IC50. The method, boiled down:
(§1)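 NCI-H441 ([…] lung) and AsPC-1 (KRAS G12D pancreatic) cells, 800 per well, were seeded in RPMI-1640 with 2% FBS and dosed next day with 3.16-fold compound dilutions (0.1% DMSO). After 5 days at 37 °C, CellTiter-Glo 3D luminescence gave inhibition versus DMSO and blank; IC50 from four-parameter fit.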

In assay [2] the test system is p-ERK in AsPC-1 cells (KRAS G12D mutation). Nature of the assay: Cell p-ERK assay (HTRF) in AsPC-1 cells. The note with it: AsPC-1 cells, 3 h compound incubation, HTRF p-ERK T202/Y204, read-out: AsPC-1 p-ERK IC50. A digest of the protocol: (§2)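 AsPC-1 (10000/well) or NCI-H441 (20000/well) cells were seeded overnight, then treated 3 h at 37° C. with 3.16-fold compound dilutions (0.1% DMSO final). Lysates were probed 4 h for phospho-ERK T202/Y204 by HTRF; inhibition versus DMSO and blank wells gave IC50 from four-parameter fits.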
(In general: TR-FRET usually uses a lanthanide donor and a delayed reading to cut background.)

The test system of assay [3] is AsPC-1 cells (KRAS G12D mutation). Kind of assay: 3D cell proliferation assay (CellTiter Glo-3D), AsPC-1. Conditions: medium with 2% FBS, read-out: AsPC-1 AP IC50. A digest of the protocol: as §1
The subject of assay [4] is p-ERK in NCI-H441 cells (KRAS G12V mutation). Kind of assay: Cell p-ERK assay (HTRF) in NCI-H441 cells. The note with it: NCI-H441 cells, 3 h compound incubation, HTRF p-ERK T202/Y204, read-out: H441 p-ERK IC50. The method, boiled down: as §2
The mark [5] stands for this setting: Homo sapiens, NCI-H441, 3D cell proliferation (CellTiter Glo-3D).
Where [6] appears, read: Homo sapiens, ASPC1, 3D cell proliferation (CellTiter Glo-3D).
[7] abbreviates: 3D cell proliferation (CellTiter Glo-3D).

Structures can show the parent of a compound that is named as a salt. Where two headings read alike, the source gives them in different places.

With `[2H]C([2H])([2H])C1(C([2H])([2H])[2H])COC(=O)[C@@H]2CCCN(N2)C(=O)[C@@H](NC(=O)[C@H]2[C@H](C)[C@@H]2C)Cc2nc(cs2)-c2ccc3c(c2)c(c(-c2cc(OCCN4CCOC5(CC5)C4)cnc2[C@H](C)OC)n3CC)C1` (atropisomer, axis not shown; (Ra)) [Compound Z501, (1r,2R,3S)—N-((6^3S,4S,Z)-1^1-ethyl-(Ra)-1^2-(5-(2-(4-oxa-7-azaspiro[2.5]octan-7-yl)ethoxy)-2-((S)-1-methoxyethyl)pyridin-3-yl)-10,10-bis(methyl-d3)-5,7-dioxo-6^1,6^2,6^3,6^4,6^5,6^6-hexahydro-11H-8-oxo-2(4,2)-thiazola-1(5,3)-indola-6(1,3)-pyridazinacycloundecaphane-4-yl)-2,3-dimethylcyclopropane-1-carboxamide], the IC50 (usually the point on the concentration scale where inhibition reaches its midpoint) was found to be 0.22 nM in assay [1] (setting [5]); 0.35 nM in assay [2] (Homo sapiens, ASPC1, 3 h); 0.52 nM in assay [3] (setting [6]); 0.22 nM in assay [4] (Homo sapiens, NCI-H441, 3 h).
For `CCn1c(-c2cc(N3CCN(C)CC3)cnc2[C@H](C)OC)c2c3cc(ccc31)-c1csc(n1)C[C@H](NC(=O)C(C)(C)F)C(=O)N1CCC[C@H](N1)C(=O)OCC(C)(C)C2` (single isomer, unassigned) [Compound Z5], the IC50 in assay [1] (setting [7]) came to 12.3 nM; in assay [2], 2.81 nM; in assay [3] (setting [7]), 19.5 nM; in assay [4], 4.24 nM.
As for `CCn1c(-c2cc(CC3(N4CCS(=O)(=O)CC4)CC3)cnc2[C@H](C)OC)c2c3cc(ccc31)-c1csc(n1)C[C@H](NC(=O)[C@H]1[C@H](C)[C@@H]1C)C(=O)N1CCC[C@H](N1)C(=O)OCC(C)(C)C2` (atropisomer, axis not shown; (Ra)) [Compound Z484, (1r,2R,3S)—N-((6^3S,4S,Z)—(Ra)-1^2-(5-((1-(1,1-dioxidothiomorpholino)cyclopropyl)methyl)-2-((S)-1-methoxyethyl)pyridin-3-yl)-1^1-ethyl-10,10-dimethyl-5,7-dioxo-6^1,6^2,6^3,6^4,6^5,6^6-hexahydro-1^1H-8-oxa-2(4,2)-thiazola-1(5,3)-indola-6(1.3)-pyridazinacycloundecaphane-4-yl)-2,3-dimethylcyclopropane-1-carboxamide], the IC50 in assay [1] (setting [5]) turned out to be 0.59 nM; in assay [2] (Homo sapiens, ASPC1, 3 h), 1.3 nM; in assay [3] (setting [6]), 3.19 nM; in assay [4] (Homo sapiens, NCI-H441, 3 h) it was 0.67 nM.
`CCn1c(-c2cc(C#CC3(N4CCCOCC4)CC3)cnc2[C@H](C)OC)c2c3cc(ccc31)-c1csc(n1)C[C@H](NC(=O)[C@H]1[C@H](C)[C@@H]1C)C(=O)N1CCC[C@H](N1)C(=O)OCC(C)(C)C2` (atropisomer, axis not shown; (Ra)) [Compound Z645, (1r,2R,3S)—N-((4S,Z)—(Ra)-1-(5-((1-(1,4-oxazepan-4-yl)cyclopropyl)ethynyl)-2-((S)-1-methoxyethyl)pyridin-3-yl)-1^1-ethyl-10,10-dimethyl-5,7-dioxo-6^1,6^2,6^3,6^4,6^5,6^6-hexahydro-1^1H-8-oxa-2(4,2)-thiazola-1(5,3)-indola-6(1,3)-pyridazinacycloundecaphane-4-yl)-2,3-dimethylcyclopropane-1-carboxamide]: the half-maximal inhibitory concentration (IC50) was 0.5 nM in assay [1] (setting [7]), 0.15 nM in assay [2], 0.81 nM in assay [3] (setting [7]) and 0.48 nM in assay [4].
With `CCn1c(-c2cc(N3CCN(C)CC3)cnc2[C@H](C)OC)c2c3cc(ccc31)-c1csc(n1)C[C@H](Nc1nnc3ccccn13)C(=O)N1CCC[C@H](N1)C(=O)OCC(C)(C)C2` (atropisomer, axis not shown; (Ra)) [Compound Z460, (6^3S,4S,Z)-4-([1,2,4]triazolo[4,3-a]pyridin-3-ylamino)-1^1-ethyl-(Ra)-1^2-(2-((S)-1-methoxyethyl)-5-(4-methylpiperazin-1-yl)pyridin-3-yl)-10-O-dimethyl-6^1,6^2,6^3,6^4,6^5,6^6-hexahydro-1^1H-8-oxa-2(4,2)-thiazola-1(5,3)-indola-6(1,3)-pyridazinacycloundecaphane-5,7-dione], the IC50 in assay [1] (setting [5]) was 14.3 nM; in assay [2] (Homo sapiens, ASPC1, 3 h), 26.2 nM; in assay [3] (setting [6]) it was 73.4 nM; in assay [4] (Homo sapiens, NCI-H441, 3 h) it was 6.3 nM.
On to `CCn1c(-c2cc(C#CC(C)(C)N3CCCOCC3)cnc2[C@H](C)OC)c2c3cc(ccc31)-c1csc(n1)C[C@H](NC(=O)[C@H]1[C@H](C)[C@@H]1C)C(=O)N1CCC[C@H](N1)C(=O)OCC(C)(C)C2` (atropisomer, axis not shown; (Ra)) [Compound Z625, (1r,2R,3S)—N-((6S,4S,Z)-1^1-ethyl-(Ra)-1^2-(2-((S)-1-methoxyethyl)-5-(3-(1,4-oxazepan-4-yl)-3-methylbut-1-yn-1-yl)pyridin-3-yl)-10,10-dimethyl-5,7-dioxo-6^1,6^2,6^3,6^4,6^5,6^6hexahydro-1^1H-8-oxa-2(4,2)-thiazola-1(5,3)-indola-6(1,3)-pyridazinacycloundecaphane-4-yl)-2,3-dimethylcyclopropane-1-carboxamide], for which the IC50 came to 0.24 nM in assay [1] (setting [5]); 0.33 nM in assay [2] (Homo sapiens, ASPC1, 3 h); 0.36 nM in assay [3] (setting [6]); 0.2 nM in assay [4] (Homo sapiens, NCI-H441, 3 h).
Consider `CCn1c(-c2cc(N3CCN(C)CC3)cnc2[C@H](C)OC)c2c3cc(ccc31)-c1csc(n1)C[C@H](NC1=NCCO1)C(=O)N1CCC[C@H](N1)C(=O)OCC(C)(C)C2` (atropisomer, axis not shown; (Ra)) [Compound Z71, (6^3S,4S,Z)-1^1-ethyl-(Ra)-1^2-(2-((S)-1-methoxyethyl)-5-(4-methylpiperazin-1-yl)pyridin-3-yl)-10,10-dimethyl-4-((4.5-dihydrooxazol-2-yl)amino)-6^1,6^2,6^3,6^4,6^5,6^6-hexahydro-1^1H-8-oxa-2(4,2)-thiazola-1(5,3)-indola-6(1,3)-pyridazinacycloundecaphane-5,7-dione formate], for which the IC50 turned out to be 149 nM in assay [1] (setting [5]); 96.4 nM in assay [2] (Homo sapiens, ASPC1, 3 h); 302 nM in assay [3] (setting [6]); 41.7 nM in assay [4] (Homo sapiens, NCI-H441, 3 h).
The like results for `CCn1c(-c2cc(C#CCN3CC(F)(F)C3)cnc2[C@H](C)OC)c2c3cc(ccc31)-c1csc(n1)C[C@H](NC(=O)[C@H]1[C@H](C)[C@@H]1C)C(=O)N1CCC[C@H](N1)C(=O)OCC(C)(C)C2` [Compound Z390-1, (2R,3S)—N-((6^3S,4S,Z)-1^2-(5-(3-(3,3-difluoroazetidin-1-yl)prop-1-yn-1-yl)-2-((S)-1-methoxyethyl)pyridin-3-yl)-1^1-ethyl-10,10-dimethyl-5,7-dioxo-6^1,6^2,6^3,6^4,6^5,6^6-hexahydro-1^1H-8-oxa-2(4,2)-thiazola-1(5,3)-indola-6(1,3)-pyridazinacycloundecaphane-4-yl)-2,3-dimethylcyclopropane-1-carboxamide] were, in that order, 0.48 nM, 0.34 nM, 0.54 nM and 0.4 nM.
The like results for `CCn1c(-c2cc([C@@H]3CCN4CCOC[C@@H]4C3)cnc2[C@H](C)OC)c2c3cc(ccc31)-c1csc(n1)C[C@H](NC(=O)[C@H]1[C@H](C)[C@@H]1C)C(=O)N1CCC[C@H](N1)C(=O)OCC1(CC1)C2` (single isomer, unassigned) [Compound Z77] were, in that order, 4.94 nM, 13.9 nM, 17.4 nM and 7.48 nM.
The like results for `CCn1c(-c2cc(C#CCN3CC(N=S(C)(C)=O)C3)cnc2[C@H](C)OC)c2c3cc(ccc31)-c1csc(n1)C[C@H](NC(=O)[C@H]1[C@H](C)[C@@H]1C)C(=O)N1CCC[C@H](N1)C(=O)OCC(C)(C)C2` [Compound Z1046, (2R,3S)—N-((6^3S,4S,Z)-1^2-(5-(3-(3-((dimethyl(oxo)-λ^6-sulfaneylidene)amino)azetidin-1-yl)prop-1-yn-1-yl)-2-((S)-1-methoxyethyl)pyridin-3-yl)-1^1-ethyl-10,10-dimethyl-5,7-dioxo-6^1,6^2,6^3,6^4,6^5,6^6-hexahydro-1^1H-8-oxa-2(4,2)-thiazola-1(5,3)-indola-6(1,3)-pyridazinacycloundecaphane-4-yl)-2,3-dimethylcyclopropane-1-carboxamide] were, in that order, 0.34 nM, 0.71 nM, 0.63 nM and 0.34 nM.
Consider `CCn1c(-c2cc(C#CCN3CCCOCC3)c[n+]([O-])c2[C@H](C)O)c2c3cc(ccc31)-c1csc(n1)C[C@H](NC(=O)[C@H]1[C@H](C)[C@@H]1C)C(=O)N1CCC[C@H](N1)C(=O)OCC(C)(C)C2` (single isomer, unassigned) [Compound Z1039], for which the 50% inhibitory concentration (IC50) in assay [1] (setting [5]) was 1.21 nM; in assay [2] (Homo sapiens, ASPC1, 3 h), 0.95 nM; in assay [3] (setting [6]), 1.28 nM; in assay [4] (Homo sapiens, NCI-H441, 3 h) it was 0.51 nM.
Take `CCn1c(-c2cc(C#CCN3CCCOCC3)cnc2[C@H](C)OC)c2c3cc(ccc31)-c1csc(n1)C[C@H](NC(=O)C(F)(F)C1CC1)C(=O)N1CCC[C@H](N1)C(=O)OCC(C)(C)C2` (atropisomer, axis not shown; (Ra)) [Compound Z927]: the IC50 amounted to 3.86 nM in assay [1] (setting [5]); 3.89 nM in assay [2] (Homo sapiens, ASPC1, 3 h); 6.34 nM in assay [3] (setting [6]); 1.77 nM in assay [4] (Homo sapiens, NCI-H441, 3 h).
